Results published in article PMC4499427 (Iranian Journal of Pharmaceutical Research : IJPR, 2015).
In brackets after ≈: the same amount, converted by molar mass. Like-named read-outs stand apart in the source and are kept apart here.

Assays:
[1] = tested on: Mycobacterium bovis BCG (1173P2); test: microbe, parasite or virus in culture; format: cell-based; conditions: for MIC: Mycobacterium tuberculosis variant bovis BCG, BCG
[2] = Cytotoxicity assay, MTT method; format: cell-based; conditions: mouse, L929 fibroblast cells, Fibroblast L929 cell line
Procedure: (§1) The synthesized derivatives were assayed for their toxicity on Fibroblast L929 cell line by MTT [[…]] method. The cells were grown in RPMI1640 medium at 37 °C under 5% CO2 supplemented with 10% heat inactivated fetal bovine serum (FBS), 100 U/mL penicillin and 100 µg/mL streptomycin. Then, the cells were seeded into 96-well plates at a concentration of 6000 cells/well and allowed to incubate for 24 h. The medium was then discarded and different concentrations of test compounds in complete medium were added to each well. […] The produced formazan crystals were dissolved in 100 µL of DMSO. Plates were incubated for 20 min at 37 °C and the optical densities were read at 570 nm with a reference wavelength of 630 nm as background using a spectrophotometer plate reader (Infinite® M200, TECAN). Doxorubicin and cisplatin were used as positive controls and DMSO as the solvent of the test compounds and its final concentration was less than 0.2%. IC50 was calculated by GraphPad Prism 5.04 software. All the tests were performed in triplicates.

[3] = tested on: Fibroblast L929 cell line; test: Cytotoxicity assay, MTT method; format: cell-based; conditions: 48 h
Procedure: as §1

[4] = 24 h, read-out: Antimycobacterial activity MIC
[5] = 48 h, read-out: Antimycobacterial activity MIC
[6] = Mycobacterium bovis BCG, reading time not given
[7] = Mycobacterium bovis BCG, read at 24 h after Alamar blue
[8] = Mycobacterium bovis BCG, read at 48 h after Alamar blue

| Compound | MIC [1, 4] [µg/mL] | MIC [1, 5] [µg/mL] | melting point | IC50 at 48 h [2] [µg/mL] | further results |
| --- | --- | --- | --- | --- | --- |
| S=c1[nH]ncn1N=Cc1cccnc1 [IIIb, 4-(pyridin-3-ylmethyleneamino)-1,2,4-triazole-5-thione] | 125 (≈ 609 µM) | 125 (≈ 609 µM) | 157 °C (dec.) | > 100 |  |
| S=c1[nH]ncn1/N=C/C=C/c1ccccc1 [IIIe, 4-((E)-3-phenylallylideneamino)-1,2,4-triazole-5-thione] | 62.5 (≈ 271 µM) | 62.5 (≈ 271 µM) |  | 42.6 (≈ 185 µM) | MIC ([1]; read-out: MIC value): 62.5 µg/mL (≈ 271 µM) |
| S=c1[nH]nc2n1N=C(c1ccccc1)CC2 [IIa, 6-phenyl-7,8-dihydro-[1,2,4]triazolo[4,3-b]pyridazine-3-thione] | 62.5 (≈ 271 µM) | 62.5 (≈ 271 µM) | 253 °C (dec.) | > 100 | MIC ([1]; read-out: MIC value): 62.5 µg/mL (≈ 271 µM) |
| S=c1[nH]ncn1N=Cc1ccncc1 [IIIc, 4-(pyridin-4-ylmethyleneamino)-1,2,4-triazole-5-thione] | 93.8 (≈ 457 µM) | 125 (≈ 609 µM) | 255 to 256 °C | > 100 |  |
| S=c1[nH]ncn1N=Cc1ccccn1 [IIIa, 4-(pyridin-2-ylmethyleneamino)-1,2,4-triazole-5-thione] | 62.5 (≈ 305 µM) | 125 (≈ 609 µM) |  | > 100 | MIC ([1]; read-out: MIC value): 62.5 µg/mL (≈ 305 µM) |
| Nn1cnnc1S [Ia, 4-amino-1,2,4-triazole-5-thione] | 62.5 (≈ 538 µM) | 62.5 (≈ 538 µM) |  | > 100 |  |
| Cc1n[nH]c(=S)n1N [Ib] |  |  |  |  | IC50 value [1, 6]: 31.25 µg/mL (≈ 240 µM); MIC value [1, 6]: 31.25 µg/mL (≈ 240 µM); Antimycobacterial activity MIC [1, 7]: 31.25/31.25 µg/mL; Antimycobacterial activity MIC [1, 8]: 31.25/31.25 µg/mL; Cytotoxicity IC50 [3]: >100 µg/mL |
| Nn1c(Cc2c[nH]c3ccccc23)n[nH]c1=S [Id, 4-amino-3-(indol-3-ylmethyl)-1,2,4-triazole-5-thione] | 62.5 (≈ 255 µM) | 62.5 (≈ 255 µM) | 172 to 175 °C | > 100 |  |
| C[S+](C)[O-] [DMSO] |  |  |  |  | Antimycobacterial activity MIC ([1]; Mycobacterium bovis BCG, 24 h, negative control DMSO): 6.5/6.5 % v/v; Antimycobacterial activity MIC ([1]; Mycobacterium bovis BCG, 48 h, negative control DMSO): 6.5/6.5 % v/v |
| CCc1n[nH]c(=S)n1N [Ic] |  |  |  |  | Antimycobacterial activity MIC [1, 7]: 62.5/62.5 µg/mL; Antimycobacterial activity MIC [1, 8]: 62.5/62.5 µg/mL; Cytotoxicity IC50 [3]: >100 µg/mL |
| S=c1[nH]nc2n1N=C(c1ccc(Cl)cc1)CC2 [IIb, 6-(4-chlorophenyl)-7,8-dihydro-[1,2,4]triazolo[4,3-b]pyridazine-3-thione] | > 500 | > 500 | 256 °C (dec.) | > 100 | antimycobacterial activity (in words) ([1]; Mycobacterium bovis BCG): inactive |
| CC[C@@H](CO)NCCN[C@@H](CC)CO [Ethambutol, reference compound] | 0.75 (≈ 3.67 µM) | 0.75 (≈ 3.67 µM) |  |  |  |
| Nn1c(Cc2cccs2)n[nH]c1=S [If, 4-amino-3-(thiophen-2-ylmethyl)-1,2,4-triazole-5-thione] | 62.5 (≈ 294 µM) | 62.5 (≈ 294 µM) | 154 to 157 °C | > 100 |  |
| CC(=O)Nc1ccc(C=Nn2cn[nH]c2=S)cc1 [IIId, 4-(4-acetamidobenzyldeneamino)-1,2,4-triazole-5-thione] |  |  |  |  | Antimycobacterial activity MIC [1, 7]: 125/125 µg/mL; Antimycobacterial activity MIC [1, 8]: 125/125 µg/mL; Cytotoxicity IC50 [3]: >100 µg/mL |
| Nn1c(C(O)c2ccccc2)n[nH]c1=S (centres unmarked) [Ie, 4-amino-3-(hydroxy(phenyl)methyl)-1,2,4-triazole-5-thione] | 62.5 (≈ 281 µM) | 62.5 (≈ 281 µM) | 167 to 170 °C | > 100 |  |
